According to article PMC10053710, “Influence of Lipidation Pattern of the KR12 Fragment of Peptide LL-37 on Its Antibacterial and Hemolytic Activities” (International Journal of Molecular Sciences, 2023):
≈ marks a conversion by molar mass, not a printed value. Where a SMILES comes first, the peptide text is derived from it. The star is where a group is joined. Octanoyl = CCCCCCCC(=O)*

Columns and labels:
[1] = system: reference strains of Staphylococcus aureus; assay: MIC over the five reference strains of S. aureus (geometric mean, range, selectivity); type: cell-based; conditions: MIC values of Table 3
Procedure: Selectivity indexes were calculated based on the MHC5 and geometric mean (GM) of MIC values against S. aureus strains.
Tests of the antibacterial activity were carried out as we just described. Briefly, for assays, the following strains of ESKAPE bacteria were chosen: Acinetobacter baumannii ATCC BAA-1605, Enterococcus faecium ATCC 700221, Klebsiella aerogenes ATCC 13048 (formerly Enterobacter aerogenes), Klebsiella pneumoniae ATCC 700603, and Pseudomonas aeruginosa ATCC 9027. Moreover, the reference strains of Staphylococcus aureus were used: S. aureus ATCC 25923, S. aureus ATCC 6538, S. aureus ATCC 33591 (MRSA), S. aureus ATCC 9144, and S. aureus ATCC 12598. Before experiments, all the strains were stored at −80 °C in Roti®-Store cryo vials (Carl Roth GmbH, Karlsruhe, Germany). To evaluate the activity of the compounds, bacteria were transferred into fresh Mueller–Hinton medium (Becton Dickinson, Warszawa, Poland) and incubated for 24 h at 37 °C. In the next step, bacterial inoculums were seeded on Mueller–Hinton agar plates (BioMaxima SA, Lublin, Poland) and incubated again for 24 h. The MIC values were determined using the broth microdilution method according to the Clinical and Laboratory Standards Institute Protocol. […] The results were read after incubation for 18 h at 37 °C. […]

[2] = system: Klebsiella pneumoniae ATCC 700603; type: cell-based; conditions: ATCC 700603, 18 h
Method in brief: (§1)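 Broth microdilution per CLSI in Mueller–Hinton broth, inoculum 0.5 × 10^5 CFU/mL exposed to peptides at 1–512 µg/mL. Read after 18 h at 37 °C; MIC = lowest concentration inhibiting visible growth, in triplicate with growth and sterility controls.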

[3] = system: Pseudomonas aeruginosa ATCC 9027; type: cell-based; conditions: ATCC 9027, 18 h
Method in brief: as §1

[4] = system: Enterococcus faecium ATCC 700221; type: cell-based; conditions: ATCC 700221, 18 h
Method in brief: as §1

[5] = system: Klebsiella aerogenes ATCC 13048; type: cell-based; conditions: ATCC 13048, 18 h
Method in brief: as §1

[6] = 18 h
S. aureus ATCC 6538 = type: cell-based, Staphylococcus aureus; conditions: ATCC 6538, 18 h
Method in brief: as §1

S. aureus ATCC 12598 = type: cell-based, Staphylococcus aureus; conditions: ATCC 12598, 18 h
Method in brief: as §1

S. aureus ATCC 9144 = type: cell-based, Staphylococcus aureus; conditions: ATCC 9144, 18 h
Method in brief: as §1

S. aureus ATCC 25923 = type: cell-based, Staphylococcus aureus; conditions: ATCC 25923, 18 h
Method in brief: as §1

[7] = system: S. aureus ATCC 33591 (MRSA); type: cell-based, Staphylococcus aureus; conditions: ATCC 33591, 18 h
Method in brief: as §1

[8] = RP-HPLC adjusted retention time as measure of hydrophobicity; type: physicochemical; conditions: chromatographic, Phenomenex Gemini-NX C18 4.6 × 150 mm, linear gradient 10–100% B (0.1% TFA in ACN) in A (0.1% aqueous TFA) over 10 min, 25 °C, 0.5 mL/min, UV 214 nm; used as hydrophobicity measure
Source text: The identity of the purified peptides was confirmed using electrospray ionization mass spectrometry (ESI-MS) in positive ion mode and the results are shown in Table S1 (Supplementary Materials).
The conjugation of KR12-NH2 with aliphatic and aromatic acids affords more hydrophobic compounds than the parent molecule, but it depends on the modified amino group involved. The conjugation of C8 to N^α amino group of the N-terminal amino acid gives a more distinct increase in hydrophobicity than that of C8 in the sidechain of lysine residues (i.e., II vs. III; IV vs. V). […] Moreover, in the acidic conditions of the mobile phase (0.1% TFA; pH 2,) both amino groups are protonated. Hypothetically, the acylation of the N^α-amino group disrupts the helix macrodipole and eliminates excessive positive charge. The dipole moment and positive charge can obviously contribute to peptide hydrophilicity. This phenomenon applies exclusively to the N^α-amino group, but not so much to N^ε. […]
Finally, the peptides were purified with solid-phase extraction (SPE) on Isolute ^TM SPE columns (flash, C18, 25 mL). The eluates were fractionated, and the purity of the peptides was determined on a Varian ProStar HPLC system controlled by a Galaxie Chromatography Data System with a Phenomenex Gemini-NX C18 column (4.6 × 150 mm, 110 Å pore size, 5 µm particle size). […]

GM (geometric mean of the MIC values against S. aureus) [1]: 168.9 | MIC K. pneumoniae [2]: 512 µg/mL (≈ 302 µM) | MIC P. aeruginosa [3]: 128 µg/mL (≈ 75.4 µM) | MIC E. faecium [4]: 32 µg/mL (≈ 18.9 µM) | MIC K. aerogenes [5]: 512 µg/mL (≈ 302 µM) | MIC A. baumannii [6]: 64 µg/mL (≈ 37.7 µM) | MIC S. aureus 6538 (S. aureus ATCC 6538): 16 µg/mL (≈ 9.43 µM) | MIC S. aureus 12598 (S. aureus ATCC 12598): 512 µg/mL (≈ 302 µM) | MIC S. aureus 9144 (S. aureus ATCC 9144): 256 µg/mL (≈ 151 µM) | MIC S. aureus 25923 (S. aureus ATCC 25923): 128 µg/mL (≈ 75.4 µM) | MIC S. aureus 33591 [7]: 512 µg/mL (≈ 302 µM) | HPLC tR (adjusted retention time, t'R) [8]: 5.05 min
SMILES: CCCCCCCC(=O)NCCCC[C@H](NC(=O)[C@H](CCCNC(=N)N)NC(=O)[C@@H](NC(=O)[C@@H](NC(=O)[C@H](CCC(N)=O)NC(=O)[C@H](CCCNC(=N)N)NC(=O)[C@@H](NC(=O)[C@H](CCCCN)NC(=O)[C@H](CC(=O)O)NC(=O)[C@H](Cc1ccccc1)NC(=O)[C@H](CC(C)C)NC(=O)[C@@H](N)CCCNC(=N)N)[C@@H](C)CC)C(C)C)[C@@H](C)CC)C(N)=O [XI, retro-KR12-C8^ε-NH2] (H-RLFDKIRQVIRK(Octanoyl)-NH2)
